Values joined by “and” are separate entries in the source; they are usually repeats but may differ in a detail not shown here. Equal values may be shown once. Read-outs that look alike come from different tables or passages of the source.
Experiments:
[1] = test system: cucumber mosaic virus; assay type: in vivo, Cucumber mosaic virus (CMV)
[2] = test system: influenza A2 (Japan 305); set-up: dose or concentration left out as unconfirmed; settings: in-vitro; 1/4 of its estimated maximum tolerated concentration; cited from earlier work
[3] = test system: CMV; settings: plants infected with CMV; one range printed for CMV and ToMV; cited from earlier work
[4] = test system: ToMV; settings: plants infected with ToMV; one range printed for CMV and ToMV; cited from earlier work
[5] = test system: HSV; settings: legend not given; cited from earlier work
[6] = test system: PVX; settings: susceptible virus PVX; cited from earlier work
[7] = test system: CLSV; settings: susceptible virus CLSV; cited from earlier work
[8] = test system: measles; settings: in-vitro; cited from earlier work
[9] = test system: herpes viruses; settings: in-vitro; cited from earlier work
[10] = test system: HSVlesions; settings: HSVlesions in humans; cited from earlier work
[11] = test system: VSV; settings: legend not given; cited from earlier work
[12] = test system: Vaccinia; settings: legend not given; cited from earlier work
[13] = test system: adenovirus; settings: no symbol given; cited from earlier work
[14] = test system: HSV Keratitis; settings: HSV Keratitis in rabbits; cited from earlier work
[15] = test system: pseudorabies virus (Suid herpes virus 1, SHV-1); settings: cited from earlier work
[16] = 1000-ppm 2-Thiouracil as control

Compound: O=c1cc[nH]c(=S)[nH]1 [2-Thiouracil]
- Average No of lesions Control [1, 16]: 1.9 and 1.7 and 1.1
- No of lesions on Control [1, 16]: 19 and 17 and 11

Compound: NC12CC3CC(CC(C3)C1)C2 [Amantadine]
- Average No of lesions Control ([1]; 1000-ppm Amantadine as control): 4.5 and 4.0 and 4.8
- No of lesions on Control ([1]; 1000-ppm Amantadine as control): 45 and 40 and 48
- inhibition of influenza A2 (Japan 305) [2]: 98%

Compound: O=C1NCCCN1CN1CCOCC1 [DD13, 1-Morpholino methyl-tetrahydro-2-(1H)-pyrimidinone]
- protective effect in % plants infected [3]: 97-100%
- protective effect in % plants infected [4]: 97-100%

Compound: CC1(C)[C@@H](O)CC[C@]2(C)[C@H]3C(=O)C=C4[C@@H]5C[C@@](C)(C(=O)O)CC[C@]5(C)CC[C@@]4(C)[C@]3(C)CC[C@@H]12 [Glycyrrhetinic acid]
- Virucidal [5]: +HSV only

Compound: CC1(C)[C@@H](O[C@H]2O[C@H](C(=O)O)[C@@H](O)[C@H](O)[C@H]2O[C@@H]2O[C@H](C(=O)O)[C@@H](O)[C@H](O)[C@H]2O)CC[C@]2(C)[C@H]3C(=O)C=C4[C@@H]5C[C@@](C)(C(=O)O)CC[C@]5(C)CC[C@@]4(C)[C@]3(C)CC[C@@H]12 [Glycyrrhizin]
- Virucidal [5]: +slight effect

Compound: NC(=O)c1ncn([C@@H]2O[C@H](CO)[C@@H](O)[C@H]2O)n1 [Ribavirin]
- concentration needed to inhibit local lesion development and to prevent infection [6]: Approximately 1000 ppm
- concentration needed to inhibit local lesion development and to prevent infection [7]: Approximately 1000 ppm

Compound: C[C@H]1O[C@@H](O[C@H]2CC[C@@]3(C)[C@@H](CC[C@]4(C)[C@@H]3C=C[C@]35OC[C@@]6(CCC(C)(C)C[C@H]63)[C@H](O)C[C@]54C)[C@]2(C)CO)[C@H](O)[C@@H](O[C@@H]2O[C@H](CO)[C@@H](O)[C@H](O)[C@H]2O)[C@H]1O [Saikosaponin-d]
- concentration that causes inactivation [8]: greater than 5 µM
- concentration that causes inactivation [9]: greater than 5 µM

Compound: Carbenoxolone/ cicloxolone
- Virucidal [5]: +HSV
- Active in vivo [10]: HSVlesions in humans

Compound: Hydroxy-protoprimulagenin
- Virucidal [5]: +HSV only
- Other viruses: VSV [11]: VSV Vaccinia adenovirus
- Other viruses: Vaccinia [12]: VSV Vaccinia adenovirus
- Other viruses: adenovirus [13]: VSV Vaccinia adenovirus
- Active in vivo [14]: HSV Keratitis in rabbits

Compound: crossasteroside B
- inhibit plaque formation [15]: 43%

Compound: crossasteroside D
- inhibit plaque formation [15]: 27%
